Measured values published in patent US5252562A, “Acetohydroxamic compound and complexes pharmaceutical compositions containing them and processes of preparation and use” (Gruenenthal GmbH, priority 1991, dated 1993).
≈ marks a conversion by molar mass, not a printed value.

Legend:
5 lipoxygenase = target: T1, 5 lipoxygenase (Homo sapiens, UniProt P09917); assay: inhibition of 5 lipoxygenase in human blood (A23187-induced iLTB4 formation, RIA); type: cell-based; settings: heparinized human blood, A23187 15 μg/ml, 30 minutes at 37° C., iLTB4 by RIA; read-out: IC50-value, concentration causing an inhibition of 50% of 5 lipoxygenase
T1 construct: endogenous in cells; host or cells: freshly drawn, heparinized human whole blood (blood leukocytes; the cell type is own knowledge)
T1 sequence (P09917 1-674): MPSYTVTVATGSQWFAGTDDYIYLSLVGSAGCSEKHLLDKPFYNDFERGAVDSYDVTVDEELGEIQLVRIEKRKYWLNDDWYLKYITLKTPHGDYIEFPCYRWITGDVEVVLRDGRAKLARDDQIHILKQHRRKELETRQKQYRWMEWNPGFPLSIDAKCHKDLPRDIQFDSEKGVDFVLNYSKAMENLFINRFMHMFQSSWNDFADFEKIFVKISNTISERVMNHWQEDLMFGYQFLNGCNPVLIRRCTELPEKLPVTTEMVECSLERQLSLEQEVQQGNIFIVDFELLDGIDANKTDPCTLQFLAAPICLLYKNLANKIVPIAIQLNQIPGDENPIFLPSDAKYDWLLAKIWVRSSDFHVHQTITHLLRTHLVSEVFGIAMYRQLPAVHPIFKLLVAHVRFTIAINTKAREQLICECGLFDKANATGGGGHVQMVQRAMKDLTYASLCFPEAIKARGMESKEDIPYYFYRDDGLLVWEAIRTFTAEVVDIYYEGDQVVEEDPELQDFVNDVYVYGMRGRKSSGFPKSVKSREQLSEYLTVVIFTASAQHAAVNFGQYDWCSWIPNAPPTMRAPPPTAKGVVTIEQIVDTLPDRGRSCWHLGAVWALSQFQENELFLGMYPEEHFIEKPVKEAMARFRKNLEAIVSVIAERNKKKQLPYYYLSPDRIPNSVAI
Protocol: To determine the inhibition of 5 lipoxygenase, aliquots of freshly drawn, heparinized human blood were incubated at 37° C. in a water bath with addition of either N Hydroxy-N-(thien-3-yl)methyl-acetamide in different concentrations or a solvent. After 5 minutes the calcium ionophore A23187 was added to an end concentration of 15 μg/ml blood, and the incubation was continued for 30 minutes at 37° C. Then the samples were centrifuged to collect the cell free plasma. The content of the immunoreactive leucotriene B4 (iLTB4), in each sample was determined by radioimmunoassay "RIA" (^3 H-LTB4 -RIA, Amersham) with reference to a LTB4 standard curve and was calculated as ng iLTB4 /ml plasma. The percentage inhibition caused by the acetohydroxamic acid compound of formula I at various concentrations was calculated in comparison to the aliquots incubated with solvent only. N-hydroxy-N-(thien-3-yl)methyl-acetamide has an IC50 -value, i.e. the concentration causing an inhibition of 50% of 5 lipoxygenase, of 0.3 μmolar.

cell-free 5 lipoxygenase = assay: 5 lipoxygenase activity polarographically measured in 10,000×g supernatant of homogenized rat basophilic leukemia cells; release from complex; type: biochemical; settings: RBL 10,000×g supernatant, arachidonic acid 75 μM, 5 minutes at 35° C.; complex of Example 3 versus free compound
Protocol: To determine the rate and the extent of the release of N hydroxy-[…])methyl-acetamide from the complex prepared according to Example 3, the 5 lipoxygenase activity of cell-free 5 lipoxygenase was polarographically measured with oxygen electrodes in 10,000×g supernatant from homogenized rat basophilic leukemia cells (RBL i cells). After incubation of the 10,000×g supernatant with arachidonic acid (75 μM), adenosine triphosphate (4 mM), glutathione (4 mM), and either N hydroxy-[…])methyl-acetamide or a solvent for 5 minutes at 35° C., the lipoxygenase reaction was initiated by addition of calcium chloride and plotted simultaneously. The evaluation included the duration of the lag-phase as well as the initial rate of the reaction after the lag-phase. […] A significant amount of the acetohydroxamic acid compound is fully available in the biological test system even when the compound is originally administered in the form of a complex.

cyclooxygenase = target: T2, cyclooxygenase (Ovis aries, UniProt P05979); assay: activity of cyclooxygenase in sheep seminal vesicle microsomes ([14C]-arachidonic acid, TLC); type: biochemical; settings: potassium phosphate buffer pH 7.0
T2 sequence (P05979 25-600): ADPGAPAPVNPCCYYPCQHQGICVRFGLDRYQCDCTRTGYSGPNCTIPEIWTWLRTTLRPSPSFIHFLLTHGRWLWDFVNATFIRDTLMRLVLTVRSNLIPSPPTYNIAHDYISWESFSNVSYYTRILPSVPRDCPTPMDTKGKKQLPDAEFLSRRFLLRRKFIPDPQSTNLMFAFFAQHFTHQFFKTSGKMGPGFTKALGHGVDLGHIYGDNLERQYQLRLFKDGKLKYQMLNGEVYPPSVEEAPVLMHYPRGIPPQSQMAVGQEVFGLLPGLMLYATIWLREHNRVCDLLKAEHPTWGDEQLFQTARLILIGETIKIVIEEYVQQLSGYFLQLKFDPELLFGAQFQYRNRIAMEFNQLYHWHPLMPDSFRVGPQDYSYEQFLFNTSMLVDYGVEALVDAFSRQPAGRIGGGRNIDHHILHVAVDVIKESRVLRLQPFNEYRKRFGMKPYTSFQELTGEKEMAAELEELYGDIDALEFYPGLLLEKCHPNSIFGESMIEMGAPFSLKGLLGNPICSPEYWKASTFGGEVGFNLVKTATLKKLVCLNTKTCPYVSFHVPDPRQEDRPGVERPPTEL
Protocol: The effect of the acetohydroxamic acid compound of formula I on the activity of cyclooxygenase was tested using a suspension of sheep seminal vesicle microsomes in […] of potassium phosphate buffer of pH 7.0 which was incubated either with N-hydroxy-N-(thien-3-yl)methyl-acetamide or with a solvent only and [^14 C]-arachidonic acid. The IC50 values, i.e. the concentrations causing an inhibition of 50% of cyclooxygenase were determined by thin layer chromatography using a TLC-linear-analyzer.

5-lipoxygenase = assay: ex vivo iLTB4-formation in whole blood of rats after oral administration (bioavailability); parameters: species or system rat (Wistar strain, male)
Protocol: The bioavailability of the compound of formula I was characterized by means of an ex vivo biochemical assessment method described by Tateson et al. in Brit. J. Pharmacol. 528 (1988): N-Hydroxy-N-(thien-3-yl)methyl-acetamide was orally administered in a dose of 21.5 mg/kg to male rats (Wistar strain). One hour later blood was taken from the rats in lethal CO2 -narcosis. Aliquots of the blood were incubated for 30 minutes at 37° C. in a water bath with addition of calcium ionophore A 23 187 to an end concentration of 15 μg/ml. At the end of the incubation the samples were centrifuged to collect the cell free plasma. The concentration of the immunoreactive LTB4 (iLTB4 ng/ml) in each plasma sample was determined by radioimmunoassay (^3 H-LTB4 -RIA, Amersham) by means of a LTB4 -standard curve in diluted rat plasma. To determine the percent inhibition of ex vivo iLTB4 -formation in whole blood of rats treated with the compound of formula I, rats orally treated with an appropriate vehicle solution were included in all experiments, aliquots of their blood were run in parallel and were processed in the same manner as described. The mean iLTB4 formation per ml plasma of these vehicle treated rats served as the 100% value of normal 5-lipoxygenase activity. The percent inhibition of the ex vivo iLTB4 -formation after oral administration of the compound of formula I was calculated according to the following formula: […]
where Q represents the mean iLTB4 content in ng […] per ml plasma of the rats treated with the compound of formula I and C represents the mean iLTB4 content in ng iLTB4 per ml plasma of rats treated only with the vehicle.

guinea pigs = assay: antiasthmatic effect: ovalbumin-induced bronchoconstriction in anesthetized, ventilated, passively sensitized guinea pigs (Konzett-Roessler); type: in vivo, guinea pig
Protocol: The antiasthmatic effect of the compound according to the invention was tested in anesthetized and ventilated guinea pigs. In order to induce an asthmatic reaction, the animals were passively sensitized with a single intraperitoneal injection of antiovalbumin serum. After 48 hours the asthmatic reaction was elicited by intravenous challenge with 0.2 mg/kg of ovalbumin. The immediately resulting bronchoconstriction was measured as an increase in overflow according to the Konzett-Roessler method for a period of 10 minutes (Naunyn Schiedeberg's Arch. Exp. Path. Pharma. Vol. 195, 71-74 (1940)). Effects caused by histamine, serotonin and sympathic counterreaction were eliminated by intravenous pretreatment with 2.15 mg/kg of mepyramine, […] of propranolol, 4.64 mg/kg of atropine and 1 mg/kg of methysergide, all given 5 minutes before challenge. N-Hydroxy-N-(thien-3-yl)methyl-acetamide was orally administered 60 minutes before, intravenously administered 30 minutes before, and locally administered 2 minutes before the administration of ovalbumin.

[1] = system: isolated tracheal strips of guinea pigs; assay: anti-anaphylactic effect: ovalbumin-induced anaphylactic constrictions of isolated tracheal strips; type: cell-based, guinea pig; settings: Cavia porcellus; tracheal strips of actively sensitized guinea pigs, with mepyramine and indomethacin, 37° C.; Example 3 based on the complexed N-hydroxy-N-(thien-3-yl)methyl-acetamide content; read-out: IC50-value, inhibition of 50% of the anaphylactic constrictions
Protocol: The anti-anaphylactic effect of N-hydroxy-[…])methyl-acetamide was tested using an in vitro model. […] The organs were connected to isometric force transducers. After incubation with mepyramine (elimination of histamine) and indomethacin (inhibition of cyclooxygenase resulting in an increase of the anaphylactic reaction) ovalbumin was added to the organ bath in cumulatively increasing concentrations. The resulting anaphylactic constrictions were inhibited by N-hydroxy-[…])methyl-acetamide which was added to the organ bath before the anaphylactic constrictions were elicited.

solubility = type: physicochemical
toxicity = settings: observed only at far higher doses than therapeutic or prophylactic doses

## CC(=O)N(O)Cc1ccsc1 [Example 1, N-hydroxy-N-(thien-3-yl)methyl-acetamide]
5 lipoxygenase
  IC50: 0.3 µM
cell-free 5 lipoxygenase
  inhibition of the 5 lipoxygenase reaction: comparable effects
  prolongation of the lag-phase of the 5 lipoxygenase reaction: comparable effects
cyclooxygenase
  IC50-values for the inhibition of cyclooxygenase compared with IC50-values for 5-lipoxygenase: significantly higher than the IC50 -values for the inhibition of 5-lipoxygenase
5-lipoxygenase; 21.5 mg/kg oral, male Wistar rats, blood taken one hour later, A23187 15 μg/ml
  percent inhibition of the ex vivo iLTB4-formation: 95%
5-lipoxygenase; oral, 21.5 mg/kg, rats, concluded from ex vivo iLTB4 inhibition
  oral availability: excellent oral availability
5-lipoxygenase; oral, rats, ex vivo iLTB4-formation, 60 min
  calculated dose with a semi-maximum inhibiting effect after oral administration: 5.6 mg/kg
Guinea pigs; 21.5 mg/kg oral, 60 minutes before ovalbumin
  inhibition of bronchoconstriction: 42%
Guinea pigs; oral 21.5 mg/kg (free) versus intravenous 21.5 mg/kg (complex), guinea pigs
  resorption of the acetohydroxamic acid compound: high resorption
[1]
  IC50: 10.2 µM
solubility; organic solvent or mixture, water/ethanol 4:1 mixture
  solubility: 3000 µg/mL (≈ 17.5 mM)
solubility; phosphate buffer/ethanol 4:1, organic solvent or mixture, phosphate buffer (pH 7.4)/ethanol, 4:1 mixture
  solubility: 3000 µg/mL (≈ 17.5 mM)
toxicity
  degree of toxicity: low degree of toxicity
